pIC50: −log10 of the molar value.
Legend:
KRAS (WT) = molecular target: T1, KRAS (WT) (Homo sapiens, UniProt P01116); assay: In-vitro RAS-RAF binding assay (RRB), HTRF/FRET; type: biochemical; conditions: Table 2, average of multiple runs of each compound; read-out: Inhibition of RAS-RAF Binding (in-vitro) KRAS (WT) IC50
T1 construct: Biotinylated KRAS protein amino acids 1-169 (produced at Erasca); made in house
How it was run: (§1)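 Compounds preincubated with terbium-labelled biotinylated KRAS (aa 1-169, 30 nM) before 60 min SOS1-catalysed exchange to GTPgS. Binding of the d2-labelled cRAF RBD (30 nM) is read as FRET at equilibrium in duplicate. Buffer: 50 mM HEPES pH 7.5, 100 mM NaCl, 1 mM MgCl2, 1 mM DTT.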

[1] = molecular target: T2, KRas G12D fused to HiBiT peptide (Homo sapiens, UniProt P01116, G12D); assay: ASPC-1 HiBit assay to determine G12D degradation; type: cell-based; conditions: AsPC-1 HiBiT cells, 24-hour incubation; read-out: ASPC-1 HiBit DC50 (C)
T2 construct: endogenous in cells; host or cells: AsPC-1 HiBiT knock-in single clone (Cas9 RNP + ssODN)
Method: Compounds presented herein induce degradation of the KRas G12D (KRasG12D) upon treatment of engineered cancer cell line.
The degradation of the KRasG12D in cellular environment was measured using engineered homozygous KRasG12D AsPC-1 cell line in which KRas G12D was fused to luminescent HiBiT peptide at the N-terminal. The small (1.3 kDa) HiBiT peptide complements with high affinity to a larger (18 kDa) subunit evolved from NanoLuc (termed LgBiT). The resulting complex (i.e., reconstituted luciferase enzyme) generates bright luminescence that translates to high sensitivity (1 amol), broad dynamic range (four orders of magnitude), and rapid kinetics for real time quantitation.
To generate HiBit KRasG12D knock-in cell line, sgRNA (SEQ. ID NO: 1) and ssODN (SEQ. ID NO: 2) were designed and synthesized at GenScript.
RNP complex was generated by mixing of 100 pmol of Cas9 protein to PCR tubes containing 300 pmol sgRNA incubating the resultant complex at room temperature for 20 min. […] ssODN was added to RNP complex slowly and RNP-ssODN complex was incubated at room temperature for 10 min. RNP-ssODN complex was mixed with […] of AsPC-1 cells (1×10^6 cells total) and electroporated using Nucleofactor (Program CM-150). Cells were then incubated at ambient temperature for 5 min and transferred to a six-well plate containing 2 ml growth medium.
To select pools with the highest luminescence signal, 10^4 cells of parental AsPC-1 and transfected pools were plated in solid white 384-well tissue culture plates. 24 hours after seeding, HiBiT was detected using the Nano-Glo HiBiT Lytic Detection System (Promega) following manufacturer's instructions. Briefly, […] of Nano-Glo HiBiT Lytic Detection Reagent was added directly to the cells and mixed by inversion before recording luminescence on an Envision (Perkin-Elmer) with 0.5 s integration time.
Single clones were isolated from stable pool by limited dilution method and presence of HiBiT knock-in was verified by TA cloning and subsequent sequencing. Additionally, western blotting analysis was conducted to confirm selection of single clones with high luminescence signal.
For DC50S measurements, AsPC-1 HiBiT single clone cells were grown in RPMI 1640 medium (Invitrogen 22400-089) supplemented with 10% fetal bovine serum. Cells were seeded in 384-well tissue culture plates at a density of 7,000 cells/well and allowed to attach for 24 hours.
Test compounds were distributed directly into assay plate with the adjustment for DMSO concentration using Tecan HP D300e. For most of the experiments, the final concentration of compounds starts from 10 μM, 3-fold dilution dose response and 10 doses. […] DMSO final concentration is 1%. Each concentration of exemplary compound was tested as singleton. The negative control wells were cells with DMSO only, and the positive control wells were cells with […] inhibitor.
Following 24-hour incubation with the compounds plate and Nano-Glo® HiBiT Lytic reagents were equilibrated to room temperature. 20 μL of HiBiT Lytic reagent were added to each well. The assay plate was incubated on digital microplate shaker (350 rpm) for 20 min followed by centrifugation at 500 g for 1 min. Luminescence was recorded using Envision (Perkin-Elmer) using aperture 384-L1 with 0.1 s integration time.
HiBiT signal are used to calculate the % degradation at given compound concentration using the following formula:
% Degradation=(1−(Sample HiBiT signal−Ave Min signal)/(Ave Max signal−Ave Min signal))*100%
For DC50 calculation, the data with the hook effect were removed first and DC50S was reported using a 4-parameter fit of dose response curve using GraphPad in those cases where maximum % degradation was >50% and Minimal % degradation was <50%. The decrease in DC50 reflects that the exemplary compound led to a higher level of degradation of KRasG12D than another exemplary compound at specific timepoint of treatment of cancer cell line. […]

KRAS G12D = KRAS G12D (Homo sapiens, UniProt P01116, G12D); assay: In-vitro RAS-RAF binding assay (RRB), HTRF/FRET; type: biochemical; design: Biotinylated KRAS protein amino acids 1-169 (produced at Erasca); made in house; conditions: Table 2, average of multiple runs of each compound; read-out: Inhibition of RAS-RAF Binding (in-vitro) KRAS (G12D) IC50
How it was run: as §1

T2 sequence (P01116 1-188 isoform P01116-2 G12D): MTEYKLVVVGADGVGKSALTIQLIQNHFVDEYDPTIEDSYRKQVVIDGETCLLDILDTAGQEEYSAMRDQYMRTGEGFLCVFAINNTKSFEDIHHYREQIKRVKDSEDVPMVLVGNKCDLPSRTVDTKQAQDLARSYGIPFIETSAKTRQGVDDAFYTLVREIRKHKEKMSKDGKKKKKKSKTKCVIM
Sequence of KRAS G12D (P01116 1-169 isoform P01116-2 G12D): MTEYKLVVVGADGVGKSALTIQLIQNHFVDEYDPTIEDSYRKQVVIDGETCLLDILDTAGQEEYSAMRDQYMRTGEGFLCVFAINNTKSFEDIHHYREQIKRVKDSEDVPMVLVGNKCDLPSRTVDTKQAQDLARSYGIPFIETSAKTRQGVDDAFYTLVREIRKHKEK
T1 sequence (P01116 1-169 isoform P01116-2): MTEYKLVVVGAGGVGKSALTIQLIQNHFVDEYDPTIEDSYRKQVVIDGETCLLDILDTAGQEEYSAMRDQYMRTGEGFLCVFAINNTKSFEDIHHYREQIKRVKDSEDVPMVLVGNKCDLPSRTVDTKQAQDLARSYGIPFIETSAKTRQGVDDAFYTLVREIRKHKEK

Compound	pIC50 (KRAS (WT))	DC50 [1]	pIC50 (KRAS G12D)
C#Cc1c(F)ccc2cc(O)cc(-c3ncc4c(N5CC6CCC(C5)N6)nc(OCCN5CCC(COc6cc(C(C(=O)N7C[C@H](O)C[C@H]7C(=O)N[C@@H](C)c7ccc(-c8scnc8C)cc7)C(C)C)on6)CC5)nc4c3F)c12 (stereo in doubt) [Example 35, (2S,4R)-1-((2R)-2-(3-((1-(2-((4-(3,8-diazabicyclo[3.2.1]octan-3-yl)-7-(8-ethynyl-7-fluoro-3-hydroxynaphthalen-1-yl)-8-fluoropyrido[4,3-d]pyrimidin-2-yl)oxy)ethyl)piperidin-4-yl)methoxy)isoxazol-5-yl)-3-methylbutanoyl)-4-hydroxy-N—((S)-1-(4-(4-methylthiazol-5-yl)phenyl)ethyl)pyrrolidine-2-carboxamide]	6.71	467 nM	7.92
CC(C)[C@@H](C(=O)N1C[C@H](O)C[C@H]1C(=O)N[C@@H](C)c1ccc(-c2c(F)cc(F)cc2F)cc1)c1cc(N2CC3(CCN(CCOc4nc(N5CC6CCC(C5)N6)c5cc(C(F)(F)F)c(-c6ccc(F)c7sc(N)c(C#N)c67)c(F)c5n4)CC3)C2)no1 [Example 75, (2S,4R)-1-((2R)-2-(3-(7-(2-((7-(2-amino-3-cyano-7-fluorobenzo[b]thiophen-4-yl)-4-(3,8-diazabicyclo[3.2.1]octan-3-yl)-8-fluoro-6-(trifluoromethyl)quinazolin-2-yl)oxy)ethyl)-2,7-diazaspiro[3.5]nonan-2-yl)isoxazol-5-yl)-3-methylbutanoyl)-4-hydroxy-N-((S)-1-(2′,4′,6′-trifluoro-[1,1′-biphenyl]-4-yl)ethyl)pyrrolidine-2-carboxamide]	6.08	843 nM	7.62
Cc1ncsc1-c1ccc([C@H](C)NC(=O)[C@@H]2C[C@@H](O)CN2C(=O)[C@@H](NC(=O)CCOCCCN2CCC[C@H]2COc2nc(N3CC4CCC(C3)N4)c3cc(C(F)(F)F)c(-c4ccc(F)c5sc(N)c(C#N)c45)c(F)c3n2)C(C)(C)C)cc1 [Example 91, (2S,4R)-1-((2S)-2-(3-(3-((2S)-2-((((7S)-7-(2-amino-3-cyano-7-fluorobenzo[b]thiophen-4-yl)-4-(3,8-diazabicyclo[3.2.1]octan-3-yl)-8-fluoro-6-(trifluoromethyl)quinazolin-2-yl)oxy)methyl)pyrrolidin-1-yl)propoxy)propanamido)-3,3-dimethylbutanoyl)-4-hydroxy-N—((S)-1-(4-(4-methylthiazol-5-yl)phenyl)ethyl)pyrrolidine-2-carboxamide]	7.64	23 nM	8.09
C#Cc1c(F)ccc2cc(O)cc(-c3ncc4c(N5CC6CCC(C5)N6)nc(OCCN5CCC(COc6cc([C@H](C(=O)N7C[C@H](O)C[C@H]7C(=O)N[C@@H](C)c7ccc(-c8c(F)cccc8F)cc7)C(C)C)on6)CC5)nc4c3F)c12 [Example 15, (2S,4R)-1-((2R)-2-(3-((1-(2-((4-(3,8-diazabicyclo[3.2.1]octan-3-yl)-7-(8-ethynyl-7-fluoro-3-hydroxynaphthalen-1-yl)-8-fluoropyrido[4,3-d]pyrimidin-2-yl)oxy)ethyl)piperidin-4-yl)methoxy)isoxazol-5-yl)-3-methylbutanoyl)-N—((S)-1-(2′,6′-difluoro-[1,1′-biphenyl]-4-yl)ethyl)-4-hydroxypyrrolidine-2-carboxamide]	5.88	112 nM	7.90
CC(C)[C@@H](C(=O)N1C[C@H](O)C[C@H]1C(=O)N[C@@H](C)c1ccc(-c2c(F)cc(F)cc2F)cc1)c1cc(OCC2(C)CCN(CCOc3nc(N4CC5CCC(C4)N5)c4cc(C(F)(F)F)c(-c5ccc(F)c6sc(N)c(C#N)c56)c(F)c4n3)CC2)no1 [Example 76, (2S,4R)-1-((2R)-2-(3-((1-(2-((7-(2-amino-3-cyano-7-fluorobenzo[b]thiophen-4-yl)-4-(3,8-diazabicyclo[3.2.1]octan-3-yl)-8-fluoro-6-(trifluoromethyl)quinazolin-2-yl)oxy)ethyl)-4-methylpiperidin-4-yl)methoxy)isoxazol-5-yl)-3-methylbutanoyl)-4-hydroxy-N-((S)-1-(2′,4′,6′-trifluoro-[1,1′-biphenyl]-4-yl)ethyl)pyrrolidine-2-carboxamide]	5.72	259 nM	7.66
CC(C)[C@@H](C(=O)N1C[C@H](O)C[C@H]1C(=O)N[C@@H](C)c1ccc(-c2c(F)cc(F)cc2F)cc1)c1cc(OCC2(C)CCN(CCOc3nc(N4CC5CCC(C4)N5)c4cc(Cl)c(-c5ccc(F)c6sc(N)c(C#N)c56)c(F)c4n3)CC2)no1 [Example 72, (2S,4R)-1-((2R)-2-(3-((1-(2-((7-(2-amino-3-cyano-7-fluorobenzo[b]thiophen-4-yl)-4-(3,8-diazabicyclo[3.2.1]octan-3-yl)-6-chloro-8-fluoroquinazolin-2-yl)oxy)ethyl)-4-methylpiperidin-4-yl)methoxy)isoxazol-5-yl)-3-methylbutanoyl)-4-hydroxy-N-((S)-1-(2′,4′,6′-trifluoro-[1,1′-biphenyl]-4-yl)ethyl)pyrrolidine-2-carboxamide]	5.17	528 nM	7.53
C[C@H](NC(=O)[C@@H]1C[C@@H](O)CN1C(=O)[C@@H](NC(=O)CCOCCCN1CCC[C@H]1COc1nc(N2CC3CCC(C2)N3)c2cc(Cl)c(-c3ccc(F)c4sc(N)c(C#N)c34)c(F)c2n1)C(C)(C)C)c1ccc(-c2c(F)cc(F)cc2F)cc1 (single isomer, unassigned) [Example 97]	7.52	135 nM	8.07
C#Cc1c(F)ccc2cc(O)cc(-c3ncc4c(N5CC6CCC(C5)N6)nc(OCCN5CCC6(CC5)CN(c5cc([C@H](C(=O)N7C[C@H](O)C[C@H]7C(=O)N[C@@H](C)c7ccc(-c8cccc(F)c8F)cc7)C(C)C)on5)C6)nc4c3F)c12 [Example 98, (2S,4R)-1-((2R)-2-(3-(7-(2-((4-(3,8-diazabicyclo[3.2.1]octan-3-yl)-7-(8-ethynyl-7-fluoro-3-hydroxynaphthalen-1-yl)-8-fluoropyrido[4,3-d]pyrimidin-2-yl)oxy)ethyl)-2,7-diazaspiro[3.5]nonan-2-yl)isoxazol-5-yl)-3-methylbutanoyl)-N—((S)-1-(2′,3′-difluoro-[1,1′-biphenyl]-4-yl)ethyl)-4-hydroxypyrrolidine-2-carboxamide]	5.84	107 nM	7.80
